Experimental data: patent US11766430B2, “Methods of using a phenoxypropylamine compound to treat pain” (Minerva Neurosciences, Inc., priority 2018, dated 2023)
Values joined by “and” are separate entries in the source; they are usually repeats but may differ in a detail not shown here. Identical values can stand only once.

Tested on: carrageenan-induced mechanical hyperalgesia in rats
Experiment: Carrageenan-induced mechanical hyperalgesia, paw pressure test, time course to 240 min (Example 2)
Assay type: in vivo, male Sprague-Dawley rats
Conditions: 3 mg/kg s.c.
Procedure: In this model, inflammation is induced by intraplantar injection of carrageenan (2%) into the right hindpaw of the rat. Three hours later, reaction thresholds are measured using the paw pressure test. Pressure is gradually applied to both hind paws (inflamed and control) of the rat, and reaction thresholds are determined as the pressure (g) required to elicit paw withdrawal or vocalization. Morphine (3 mg/kg, s.c.) was used as a positive control.
The experiments in this study used fifty (50) male Sprague-Dawley rats (SPF status, Janvier, France), each weighing 204-260 grams. The rats were housed in a temperature (20-24° C.) and relative humidity (45%-65%) controlled room and acclimated to an artificial day/night cycle of 12 hours light (6.30 a.m. to 6.30 p.m.)/12 hours darkness. Rats had free access to sterilized tap water and were fed ad libitum with pelleted complete diet (reference A04, S.A.F.E.). Rats were housed 4 per cage (cages Type E) and were acclimated for a period of at least 5 days before any testing. Each rat was identified by tail markings. Based on the SPF status of the animal facilities, there is no reason to expect that contaminants were present in the food, water or bedding, at levels capable of interfering with the results of the tests.
Pain Test: Static mechanical hyperalgesia was assessed using the Paw Pressure test or Randall & Selitto test (Randall, L. O. and Selitto, J. J., A method for measurement of analgesic activity on inflamed tissue, Arch Int Pharmacodyn, 1957(111): 409-419). This test requires the application of an increasing pressure on the hind paws between a flat surface and a blunt pointer. This test is usually used with animals with one hind paw inflamed by an injection or injured by ligation, and one normal hind paw, to evaluate drugs for analgesic action. The apparatus exerts a steadily increasing force and reaction threshold is determined as the pressure (g) required to elicit paw withdrawal and/or vocalization. In the experiment, animals were gently handled by the experimenter and static mechanical hyperalgesia was assessed. Each reaction threshold measurement was done for both hind paws.
Five (5) experimental groups of 10 rats each were used. Each group was first injected with of 100 μL of a 2% carrageenan suspension in the plantar aspect of the right hindpaw. Three hours after carrageenan injection, paw withdrawal threshold was measured using the paw pressure test (Baseline). The 5 groups were then administered the following: • Group 1: vehicle (0.5% HPMC), i.p., solution (negative control); • Group 2: MIN-117 (0.01 mg/kg, i.p.) in 0.5% HPMC, suspension; • Group 3: MIN-117 (0.1 mg/kg, i.p.) in 0.5% HPMC, suspension; • Group 4: MIN-117 (1 mg/kg, i.p.) in 0.5% HPMC, suspension; and • Group 5: morphine (3 mg/kg, s.c.) in 0.9% NaCl, solution (positive control).
After administering vehicle, MIN-117, or morphine, the antihyperalgesic effect of the compounds was evaluated using the paw pressure test at 0 min. (T0), 30 min., 60 min., 120 min., and 240 min.
Vehicle and MIN-117 were administered intraperitoneally at 10 mL/kg. Morphine was subcutaneously administered at 5 mL/kg. Dosing and testing were performed in a random order by a blinded experimenter except for the morphine-treated group. Doses were expressed in terms of free active substance. Rats were sacrificed at the end of the experiment by CO2 inhalation pending subsequent removal by a certified company.
Results were assessed as: the paw withdrawal threshold (mean±s.e.m.) in grams of contact pressure for each group, calculated from individual paw withdrawal thresholds; the percentage of variation of the paw withdrawal threshold calculated from the mean value of the vehicle-treated group; and/or the percentage of activity. To determine a statistical effect of the test substance and the reference substance, data were analyzed by a non-parametrical test. The significance level was p<0.05.

[1] = 120 min, listed as Morphine HCl
[2] = 240 min, listed as Morphine HCl
[3] = Baseline, listed as Morphine HCl
[4] = T0 (baseline before dosing), listed as Morphine HCl
[5] = T0 + 30 min, listed as Morphine HCl

CN1CC[C@]23c4c5ccc(O)c4O[C@H]2[C@@H](O)C=C[C@H]3[C@H]1C5 [Morphine, reference compound]
Time of maximum effect on injured paw withdrawal threshold after treatment: 30 min | Nociceptive threshold, control paw, individual rats (30 min, listed as Morphine HCl): 680 g (9×) and 520 g | Nociceptive threshold, injured paw, individual rats (30 min, listed as Morphine HCl): 600 g and 620 g (2×) and 560 g and 640 g and 680 g (3×) and 440 g and 400 g | Nociceptive threshold, control paw, individual rats (60 min, listed as Morphine HCl): 580 g and 680 g (8×) and 520 g | Nociceptive threshold, injured paw, individual rats (60 min, listed as Morphine HCl): 440 g and 600 g (3×) and 460 g and 620 g (2×) and 680 g and 480 g and 380 g | Nociceptive threshold, control paw, individual rats [1]: 480 g and 320 g and 440 g (3×) and 500 g and 380 g and 520 g and 460 g and 360 g | Nociceptive threshold, injured paw, individual rats [1]: 280 g (3×) and 260 g and 400 g and 320 g (2×) and 440 g and 220 g and 200 g | Nociceptive threshold, control paw, individual rats [2]: 320 g (4×) and 360 g (4×) and 400 g and 420 g | Nociceptive threshold, injured paw, individual rats [2]: 160 g (3×) and 180 g (3×) and 200 g (2×) and 240 g and 140 g | Nociceptive threshold, control paw, individual rats [3]: 320 g (2×) and 440 g and 420 g (3×) and 360 g (2×) and 460 g and 380 g | Nociceptive threshold, injured paw, individual rats [3]: 160 g and 200 g (5×) and 220 g and 180 g (3×) | % activity, injured paw (T0 (baseline before dosing)): 2% | % variation vs control paw, injured paw (T0 (baseline before dosing)): −51% | % variation vs vehicle-treated group, injured paw (T0 (baseline before dosing)): 5% | Nociceptive threshold, control paw (mean ± s.e.m.) (T0 (baseline before dosing)): 390.0 ± 15.6 g | Nociceptive threshold, injured paw (mean ± s.e.m.) (T0 (baseline before dosing)): 192 ± 5.3 g | Nociceptive threshold, control paw (mean ± s.e.m.) [4]: 390. g | Nociceptive threshold, injured paw (mean ± s.e.m.) [4]: 192 g | % activity, injured paw (T0 + 30 min): 230% | % variation vs control paw, injured paw (T0 + 30 min): −11% | % variation vs pre-drug threshold, injured paw (T0 + 30 min): 208% | Nociceptive threshold, control paw (mean ± s.e.m.) (T0 + 30 min): 664 g | Nociceptive threshold, injured paw (mean ± s.e.m.) (T0 + 30 min): 592 ± 31.3 g | % variation vs vehicle-treated group, injured paw [5]: 233% | Nociceptive threshold, injured paw (mean ± s.e.m.) [5]: 592 g | % activity, injured paw (T0 + 60 min): 214% | % variation vs control paw, injured paw (T0 + 60 min): −16% | % variation vs pre-drug threshold, injured paw (T0 + 60 min): 185% | % variation vs vehicle-treated group, injured paw (T0 + 60 min): 191% | Nociceptive threshold, control paw (mean ± s.e.m.) (T0 + 60 min): 654 g | Nociceptive threshold, injured paw (mean ± s.e.m.) (T0 + 60 min): 548 ± 31.3 g | Nociceptive threshold, injured paw (mean ± s.e.m.) (T0 + 60 min, listed as Morphine HCl): 548 g | % activity, injured paw (T0 + 120 min): 72% | % variation vs control paw, injured paw (T0 + 120 min): −31% | % variation vs pre-drug threshold, injured paw (T0 + 120 min): 56% | % variation vs vehicle-treated group, injured paw (T0 + 120 min): 61% | Nociceptive threshold, control paw (mean ± s.e.m.) (T0 + 120 min): 434 g | Nociceptive threshold, injured paw (mean ± s.e.m.) (T0 + 120 min): 300 ± 23.5 g | Nociceptive threshold, injured paw (mean ± s.e.m.) (T0 + 120 min, listed as Morphine HCl): 300 g | % activity, injured paw (T0 + 240 min): −4% | % variation vs control paw, injured paw (T0 + 240 min): −49% | % variation vs pre-drug threshold, injured paw (T0 + 240 min): −6% | % variation vs vehicle-treated group, injured paw (T0 + 240 min): −3% | Nociceptive threshold, control paw (mean ± s.e.m.) (T0 + 240 min): 354 g | Nociceptive threshold, injured paw (mean ± s.e.m.) (T0 + 240 min): 180 ± 8.9 g | Nociceptive threshold, injured paw (mean ± s.e.m.) (T0 + 240 min, listed as Morphine HCl): 180 g | Effect on injured paw withdrawal threshold vs vehicle-treated group (in words) (from 30 min. to 120 min. after administration): marked and significant increase
